The values below come from paper PMC9229263, “Pyrazolo[4,3-e]tetrazolo[1,5-b][1,2,4]triazine Sulfonamides as Novel Potential Anticancer Agents: Cytotoxic and Genotoxic Activities In Vitro” (Molecules, 2022).

Molecules are shown by their SMILES. Where two headings read alike, the source gives them in different places.

As usually defined, the IC50 is the midpoint of a concentration-inhibition curve. A word on the melting point: it is the temperature, or range, at which the solid turns liquid.

Data set [1] has as its system HT-29 and DLD-1. To be noted: HT-29 and DLD-1, range; cited from earlier work.
The test system of data set [2] is PBMCs. The data set is described as follows: MTT assay, PBMCs (normal). The format is cell-based. To be noted: Homo sapiens, PBMC, PBMCs normal cells, 72 h, 95% confidence intervals in parentheses. The text has this: Human PBMCs were isolated from the leucocyte buffy coat obtained from the blood of healthy and nonsmoking volunteers (aged 18–65). Leukocyte buffy coats were collected from Blood Bank in Lodz, Poland. The use of the leukocyte buffy coat in the investigation of the effect of novel tricyclic pyrazolo[4,3-e][1,2,4]triazine derivatives on human PBMCs was approved by the Bioethics Committee for Scientific Investigation, University of Lodz (agreement no. 8/KBBN-UŁ/I//2019). Isolation of PBMCs was performed by density gradient of Lymphosep (25 min, 1400 rpm, RT). PBMCs were cultured in RPMI-1640 medium, supplemented with 1% (v/v) penicillin–streptomycin solution, 1.5% PHA and 10% (v/v) FBS.
(§1) In order to characterize the effect of tested compounds on cell viability, the MTT test was used. MTT microplate assay enables evaluation of cell viability via measuring cell metabolic activity represented as an ability to incorporate and reduce yellow tetrazolium salt to the violet-blue formazan compounds via the activity of mitochondrial succinate dehydrogenase enzyme. The number of metabolically active cells positively correlates with the amount of reduced tetrazolium salt. The absorbance of formazan solution obtained after solubilizing formazan crystals in an organic solvent, e.g., DMSO, can be measured spectrophotometrically at 570 nm.
(§2) The suspension of 8–10 × 10^3 (adherent cells) and 8 × 10^4 (PBMCs) cells in 200 µL and 100 µL medium, respectively, was transferred to each well of 96-well microplate. Plates were incubated for 24 h in controlled conditions (5% CO2; 37 °C) to ensure cell growth. Subsequently, the medium was replaced, and the cells were exposed to tested compounds in a wide range of concentrations (0.1–6 µM). Before investigated compounds were diluted in a culture medium, they had been diluted in DMSO in the final concentration of <0.5% v/v, which were not toxic to the cells. […] Absorbance was measured via spectrophotometer (microplate reader Power Wave XS BioTek Instruments, Inc., Winooski, VT, USA) at 570 nm. […]
(In general: Tetrazolium assays rely on reduction of a dye to a coloured formazan, in cell work by metabolically active cells.)

The test system of data set [3] is PC-3. The data set is described as follows: MTT assay, PC-3. The format is cell-based. Conditions: Homo sapiens; PC-3, MTT, 72 h; 95% confidence intervals in parentheses.
Source text: as §1
(§3) The suspension of 8–10 × 10^3 (adherent cells) and 8 × 10^4 (PBMCs) cells in 200 µL and 100 µL medium, respectively, was transferred to each well of 96-well microplate. Plates were incubated for 24 h in controlled conditions (5% CO2; 37 °C) to ensure cell growth. Subsequently, the medium was replaced, and the cells were exposed to tested compounds in a wide range of concentrations (0.1–6 µM). Before investigated compounds were diluted in a culture medium, they had been diluted in DMSO in the final concentration of <0.5% v/v, which were not toxic to the cells. The experimental design included blanks (wells without cells) as well as non-treated control cells. Following the 72 h incubation period, a volume of 20 µL of fresh tetrazolium salt solution (5 mg/mL in PBS) was added per well. In the case of adherent cancer cells, after 3 h of incubation (conditions as previously), the solutions were replaced by 100 µL of DMSO to dissolve formazan complexes. In contrast, the solutions in plates containing PBMCs were not removed and a 100 µL mixture of 50% DMF and 20% SDS was added to each well for the next 24 h. Absorbance was measured via spectrophotometer (microplate reader Power Wave XS BioTek Instruments, Inc., Winooski, VT, USA) at 570 nm. […]

Data set [4] has as its system HeLa. The data set is described as follows: MTT assay, HeLa. Format: cell-based. Conditions: Homo sapiens, 72 h, 95% confidence intervals in parentheses.
Source text: as §1, §3

The subject of data set [5] is HCT 116. The data set is described as follows: Immunocytochemical detection of γ-H2AX. To be noted: HCT 116, 24 h, highest concentration used (2 × IC50). The format is cell-based, human. On the procedure:
Immunocytochemical detection of the phosphorylated form of the histone protein component H2AX (γ-H2AX) is a well-known approach to estimate DNA DSB levels in both in vitro [47, 53, 66] and in vivo [67, 68] studies. HCT 116 cells were grown on coverslips in 12-well plates at a density of 1.2 × 10^5 per well for 24 h (5% CO2; 37 °C). Subsequently, the cells were exposed to investigated compounds in two different concentrations (IC50 and 2 × IC50 values with respect to MTT results), by replacing the medium with an appropriate compound concentration. Negative control (cells treated only with DMSO at <0.5%) was also included.
The cells were fixed with 4% paraformaldehyde (10 min), washed twice with PBS, and permeabilized with 0.5% (v/v) Triton X-100/PBS solution (10 min). Afterward, the cells were incubated with a blocking solution containing 1.5% goat serum, and 0.1% Triton in PBS for 10 min and incubated with the primary antibody, anti-gamma-H2AX (phospho-Ser139) (Abcam, Cambridge, UK; 1:100) for 1 h. […]
The slides were examined using a fluorescence microscope (Olympus) at 40× magnification. […] A total number of 150 randomly selected cells from digital images per sample were measured. The data were exported and analyzed in GraphPad Prism 8.0 software system (GraphPad Prism Software Inc., San Diego, CA, USA).

The test system of data set [6] is PC-3. In words: Comet assay, alkaline version (pH > 13), PC-3. Format: cell-based, human. To be noted: PC-3, 24 h, range over 0.5, 1 and 2 × IC50. How it is done: (§4) The alkaline version (pH > 13), as well as the neutral version (pH 9.0) of the comet assay, was performed on cancer cell lines according to the procedures described by Singh et al. with modifications. 12-well plates were seeded at a density of 1.2–1.5 × 10^5 cells per well. […] In addition, negative and positive controls (cells treated only with DMSO at <0.5% and with bleomycin at 20 µM, respectively) were included.
(§5) Following a 24 h incubation (5% CO2; 37 °C), the cells were trypsinized and transferred to Eppendorf tubes and centrifuged (10 min, 1400 rpm, 4 °C). The obtained pellet was resuspended in 100 µL of fresh PBS, mixed with 0.75% LMP agarose dissolved in PBS, and embedded onto microscope slides, previously precoated with 0.5% NMP agarose. The Trypan Blue dye exclusion test was used to determine the number of viable cells present in a cell suspension. […] The slides after agarose solidification were placed in a fresh, cold lysis buffer (pH 10, 1% Triton X-100, 2.5 M NaCl, 100 mM EDTA, 10 mM Tris) for 1 h (4 °C, in dark), which subsequently was replaced by electrophoretic solution (1 mM EDTA, 300 mM NaOH, pH > 13) for another 40 min. Afterward, electrophoresis was performed (25 min, 0.73 V/cm, 300 mA, 4 °C, in dark). Subsequently, the slides were neutralized with 0.4 M Tris, pH 7.5 (20 min, 4 °C, in dark) and washed 3× in distilled water. Eventually, slides were drained, stained with DAPI (1 μg/mL) for at least 1 h (4 °C), and analyzed with fluorescence microscope (Olympus, Tokyo, Japan).
(§6) A total number of 50 randomly selected images were analyzed in the commercially available software CaspLab. Two parallel experiments with aliquots of the same sample of cells were performed for a total of 100 cells. From the available parameters, the percentage of DNA in comet tail was selected as the most appropriate as being negatively associated with the level of DNA cross-links, as well as positively correlated with alkali-labile sites and the amount of DNA single-strand breaks (SSBs) and double-strand breaks (DSBs) (alkaline version of the comet assay). […]

The subject of data set [7] is BxPC-3. The data set is described as follows: MTT assay, BxPC-3. The format is cell-based. Conditions: Homo sapiens; BxPC-3, MTT, 72 h; 95% confidence intervals in parentheses.
Source text: as §1, §3

Data set [8] relates to Hs27. In words: MTT assay, Hs27 fibroblasts (normal). The format is cell-based. Conditions: Homo sapiens, 72 h, 95% confidence intervals in parentheses.
Source text: as §1, §3

Data set [9] concerns HeLa, HCT 116, PC-3, BxPC-3, Hs27, PBMCs. The data set is described as follows: MTT assay, summary over all tested cells. Format: cell-based. Conditions: Homo sapiens; HCT 116, HeLa, PC-3 and BxPC-3, MTT; read-out: IC50 range in cancer cell lines.
Source text: as §1, §2

Data set [10] deals with HCT 116. The data set is described as follows: MTT assay, HCT 116. Format: cell-based. Conditions: Homo sapiens; HCT 116, MTT, 72 h; 95% confidence intervals in parentheses.
Source text: as §1, §3

Data set [11] deals with HCT 116. In words: Comet assay, alkaline version (pH > 13), HCT 116. Format: cell-based, human. To be noted: HCT 116, 24 h; for Alkaline Version, median percentage of DNA in comet tail: compound at 2 × IC50, interquartile range in parentheses. On the procedure: as §4, §5, §6
The subject of data set [12] is HCT 116. To be noted: cited from earlier work.
Data set [13] has as its system PC-3. To be noted: cited from earlier work.
The test system of data set [14] is HT-29 and DLD-1 cancer cells. Further details: method as in PMID 26089833. Conditions: mice challenged with HT-29 and DLD-1 cancer cells, two weeks of treatment; cited from earlier work.
For data set [15], the system named is tumor development. Also noted: method as in PMID 31371419. To be noted: zebrafish embryo xenograft model; cited from earlier work.
The test system of data set [16] is HeLa. Also noted: method as in doi:10.26650/IstanbulJPharm.2020.0039, PMID 34200051. To be noted: cited from earlier work.
Data set [17] has as its system BxPC-3. Also noted: method as in PMID 20021699, PMID 24172061. To be noted: cited from earlier work.

For `Cc1nn(-c2ccc(S(=O)(=O)N3CCN(C)CC3)cc2)c2nn3nnnc3nc12` [MM137, reference compound], the IC50 in [1] is 160 to 1540 nM.
Turning to `Cc1nn(-c2ccc(S(=O)(=O)N[C@H](C)CO)cc2)c2nn3nnnc3nc12` [MM131], the half-inhibitory concentration (IC50) is 620 nM in [2]; 170 nM in data set [3]; 410 nM in data set [4]; 3100 to 3900 nM in [1]; 130 nM in data set [7]; 620 nM in data set [8]. In addition, the figures for the IC50 in data set [9] and in [10] were 130 to 900 nM and 390 nM, respectively. Further, the “median of the number of γ-H2AX foci per nucleus” value in data set [5] worked out at 15 foci per nucleus. For the same molecule, the “% of DNA in comet tail, alkaline comet assay” value (from here on “% of DNA in comet tail”) in data set [6] is reported as 19.5–40.3%; in [11] (range over 0.5, 1 and 2 × IC50), 8–38.8%. The “Alkaline Version, median percentage of DNA in comet tail” value in data set [11] stood at 38.8%.
On to `O=C1[O][Pt]2([NH][C@@H]3CCCC[C@H]3[NH]2)[O]C1=O` [oxaliplatin], for which the IC50 in [12] is 72000 nM; in data set [13], 100000 nM.
For the molecule `CCc1c2c(nc3ccc(OC(=O)N4CCC(N5CCCCC5)CC4)cc13)-c1cc3c(c(=O)n1C2)COC(=O)[C@]3(O)CC` [irinotecan], the results for the half-maximal inhibitory concentration (IC50) in data set [12] and in [13] were 2600 nM and 2100 nM, respectively.
With `Cc1nn(-c2ccc(S(=O)(=O)NC(CO)CC(C)C)cc2)c2nn3nnnc3nc12` (centres unmarked) [MM124, reference compound], the concentration for half-maximal inhibition (IC50) in [1] was 160 to 1540 nM.
Regarding `COC(=O)C1CC(O)CN1S(=O)(=O)c1ccc(-n2nc(C)c3nc4nnnn4nc32)cc1` (centres unmarked) [MM129], the half-inhibitory concentration (IC50) in data set [2] is 1110 nM; in [3], 360 nM; in data set [4], 900 nM; in [1], 3100 to 3900 nM; in data set [7], 260 nM; in data set [8], 1150 nM. Besides, the IC50 in data set [9] is 130 to 900 nM; in data set [10] it was 600 nM. Besides, the “tumor mass and volume” value in data set [14] was “significant reduction in tumor mass and volume”. The tumor development entry in data set [15] is reported as “inhibition of tumor development”. The “% of DNA in comet tail” value in data set [6] was 7.4–21.8%.
With `N.N.[Cl][Pt][Cl]` [cisplatin], the figures for the IC50 in data set [12], in [13] and in [16] were 9000 nM, 9000 nM and 12300 nM, respectively.
`Cc1nn(-c2ccc(S(=O)(=O)N[C@@H](C)CO)cc2)c2nn3nnnc3nc12` [MM130] yielded a melting point of 197 to 202 °C. The half-inhibitory concentration (IC50) in data set [2] is 770 nM. In addition, the IC50 in data set [3] was determined as 220 nM. Also, in data set [4], the half-maximal inhibitory concentration (IC50) was 590 nM. For the same molecule, in [5], the “median of the number of γ-H2AX foci per nucleus” value is 12 foci per nucleus. Also, the “% of DNA in comet tail” value in [6] is listed as 7.4–21.8%. The IC50 in [7] worked out at 170 nM. Moreover, the half-maximal inhibitory concentration (IC50) in [8] stood at 810 nM. Further, the concentration for half-maximal inhibition (IC50) in data set [10] stood at 440 nM. Besides, the “Alkaline Version, median percentage of DNA in comet tail” value in data set [11] stood at 25.6%.
Regarding `O=c1[nH]cc(F)c(=O)[nH]1` [5-fluorouracil], the IC50 was 3200 nM in data set [12] and 96100 nM in data set [17].
